Measured values as given in patent US11413278B2, “Compounds and methods for promoting stress resistance” (priority 2015, dated 2022).
pEC50: −log10 of the molar value. “And” between values parts separate entries of the source, which are not always exact repeats. Equal entries are not always repeated.

Columns and labels:
[1] = target: T1, SENP7 (Homo sapiens, UniProt Q9BQF6); details: 2 screens; 5.0 μM or 12. μM; cited from earlier work
T1 sequence (Q9BQF6 1-1050): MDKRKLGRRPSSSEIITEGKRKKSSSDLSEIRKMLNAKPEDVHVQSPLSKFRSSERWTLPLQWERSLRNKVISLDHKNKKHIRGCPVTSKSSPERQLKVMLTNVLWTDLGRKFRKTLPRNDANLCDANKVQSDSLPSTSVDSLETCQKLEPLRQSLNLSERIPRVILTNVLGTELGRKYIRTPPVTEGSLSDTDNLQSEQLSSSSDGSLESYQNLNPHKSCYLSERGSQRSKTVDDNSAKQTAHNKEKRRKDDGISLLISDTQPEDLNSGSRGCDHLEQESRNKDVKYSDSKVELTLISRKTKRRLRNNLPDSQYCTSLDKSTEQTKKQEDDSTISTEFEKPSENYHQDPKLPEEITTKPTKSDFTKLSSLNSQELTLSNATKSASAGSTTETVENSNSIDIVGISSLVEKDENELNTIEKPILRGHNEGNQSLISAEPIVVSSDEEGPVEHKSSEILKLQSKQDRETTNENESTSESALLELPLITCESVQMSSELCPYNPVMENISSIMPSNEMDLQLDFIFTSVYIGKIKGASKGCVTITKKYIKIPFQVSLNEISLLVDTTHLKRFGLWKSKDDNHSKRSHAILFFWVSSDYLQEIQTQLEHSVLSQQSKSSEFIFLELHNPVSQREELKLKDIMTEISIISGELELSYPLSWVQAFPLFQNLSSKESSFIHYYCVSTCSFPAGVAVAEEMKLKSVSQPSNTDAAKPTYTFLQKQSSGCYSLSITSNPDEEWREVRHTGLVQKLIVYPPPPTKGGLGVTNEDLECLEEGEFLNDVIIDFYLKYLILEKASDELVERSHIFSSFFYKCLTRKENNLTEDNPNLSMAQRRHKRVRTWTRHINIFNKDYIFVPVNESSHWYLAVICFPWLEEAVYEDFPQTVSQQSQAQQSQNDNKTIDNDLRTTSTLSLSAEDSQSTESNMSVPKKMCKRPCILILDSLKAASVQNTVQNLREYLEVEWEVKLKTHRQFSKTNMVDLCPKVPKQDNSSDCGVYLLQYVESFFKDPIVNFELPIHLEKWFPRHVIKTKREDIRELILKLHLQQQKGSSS

[2] = target: T2, SENP8 (Homo sapiens, UniProt Q96LD8); details: Gr-1F: 3 screens, 10.0 μM to 12. μM; O13: 1 screen, 20. μM; cited from earlier work
T2 sequence (Q96LD8 1-212): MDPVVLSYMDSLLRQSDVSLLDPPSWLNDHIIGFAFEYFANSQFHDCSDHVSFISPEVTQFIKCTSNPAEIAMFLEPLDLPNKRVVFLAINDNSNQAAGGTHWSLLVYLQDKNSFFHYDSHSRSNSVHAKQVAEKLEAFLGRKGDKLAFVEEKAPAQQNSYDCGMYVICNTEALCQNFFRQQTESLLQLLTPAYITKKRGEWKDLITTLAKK

[3] = tested on: NFKBIA; details: two screens; read-out: NFKBIA induction, EC50; cited from earlier work
[4] = tested on: DNA; test: Comet assay (DNA damage); assay type: cell-based; details: preliminary analysis
[5] = tested on: two breast cancer-derived tumor cell lines; test: Viability of breast cancer-derived tumor cell lines; assay type: cell-based; details: 5 μM

| SMILES | SENP8 inhibition [2] | pEC50 [3] | also measured |
| --- | --- | --- | --- |
| Cc1ccc(NC(=O)c2ccc([N+](=O)[O-])o2)cc1C [Gr-1F] | 60%-80% | – | SENP7 inhibition [1]: ~90% |
| O=[N+]([O-])c1ccccc1S(=O)(=O)Nc1cccc2cccnc12 [Gr-3A] | – | 4.96 and 4.92 | – |
| Nc1ccccc1S(=O)(=O)Nc1cccc2cccnc12 [Gr-3C] | – | 5.07 and 4.96 | – |
| O=C(NCc1cccnc1)/C(=C\c1cccc(Oc2ccccc2)c1)S(=O)(=O)c1ccccc1 [Gr-7A] | – | – | Fraction of damaged DNA with long comet tails [4]: significantly increased the fraction of damaged DNA with long comet tails |
| O=C(c1ccc([N+](=O)[O-])o1)N1CCc2ccccc21 [O13] | ~50% | – | – |
| [O-][n+]1onc2c3nsnc3c(Br)cc21 [O17] | – | – | Cell viability in two breast cancer-derived tumor cell lines [5]: significantly reduce cell viability |
